Laboratory results as given in ChEMBL document CHEMBL1201862, “PubChem BioAssay data set” (2004).
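Cells were grown in 96-well plates and exposed to each compound for 48 hours at five concentrations; endpoints were interpolated linearly between bracketing concentrations, or set to the highest concentration if not reached. GI50 = concentration required for 50% inhibition of growth.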 Activity calls are given as the source filed them. No stated cut-off is given here; in the data, active = GI50 up to about 1.1 µM and inactive = higher.

Assays:
Test in all cases: NCI anticancer screen, dose series, 48 h
TK-10 = tested on: TK-10
HCT-15 = tested on: HCT-15
HOP-62 = tested on: HOP-62
RXF 393 = tested on: RXF 393
MDA-N = tested on: MDA-N
SF-268 = tested on: SF-268
EKVX = tested on: EKVX
NCI-H23 = tested on: NCI-H23
DU-145 = tested on: DU-145
SF-539 = tested on: SF-539
SNB-19 = tested on: SNB-19
MDA-MB-435 = tested on: MDA-MB-435
K562 = tested on: K562
UACC-62 = tested on: UACC-62
SF-295 = tested on: SF-295
Malme-3M = tested on: Malme-3M
SW-620 = tested on: SW-620
HL-60 = tested on: HL-60
NCI-H226 = tested on: NCI-H226
HCC 2998 = tested on: HCC 2998

Compound | GI50 (TK-10) | GI50 (HCT-15) [µM] | GI50 (HOP-62) | GI50 (RXF 393) | GI50 (MDA-N) | GI50 (SF-268) | GI50 (EKVX) | GI50 (NCI-H23) | GI50 (DU-145) | GI50 (SF-539) | GI50 (SNB-19) | GI50 (MDA-MB-435) | GI50 (K562) | GI50 (UACC-62) | GI50 (SF-295) | GI50 (Malme-3M) | GI50 (SW-620) | GI50 (HL-60) | GI50 (NCI-H226) | GI50 (HCC 2998)
Cc1cn(C2CC(O)C(COC(N)=O)O2)c(=O)[nH]c1=O (stereo not given) | > 100 µM (inactive) | > 100 | > 100 µM (inactive) | > 100 µM (inactive) | > 100 µM (inactive) | > 100 µM (inactive) | > 100 µM (inactive) | > 100 µM (inactive) | > 100 µM (inactive) | > 100 µM (inactive) | > 100 µM (inactive) | > 100 µM (inactive) | > 100 µM (inactive) | > 100 µM (inactive) | > 100 µM (inactive) | > 100 µM (inactive) | > 100 µM (inactive) | > 100 µM (inactive) | > 100 µM (inactive) | –
CCCCCCc1nn2c(-c3ccc(C)cc3)nnc2s1 | > 100 µM (inactive) | > 100 | > 100 µM (inactive) | 77.8 µM (inactive) | > 100 µM (inactive) | > 100 µM (inactive) | 76.9 µM (inactive) | > 100 µM (inactive) | > 100 µM (inactive) | 81.8 µM (inactive) | > 100 µM (inactive) | > 100 µM (inactive) | > 100 µM (inactive) | > 100 µM (inactive) | > 100 µM (inactive) | – | > 100 µM (inactive) | – | – | –
CN(C)CC(NC(NCS)C(=O)NCCNc1ccc(NCCNC(=O)C(NCS)NC(CN(C)C)OCCl)c2c1C(=O)c1c(O)ccc(O)c1C2=O)OCCl (stereo not given) | 0.619 µM (active) | 0.13 | 0.0151 µM (active) | – | 0.267 µM (active) | 0.0557 µM (active) | 0.228 µM (active) | 0.00877 µM (active) | 0.0365 µM (active) | – | 0.0301 µM (active) | 0.151 µM (active) | 0.00678 µM (active) | 0.0301 µM (active) | 0.00518 µM (active) | 0.0605 µM (active) | 0.00461 µM (active) | – | 0.0585 µM (active) | 0.237 µM (active)
Cc1nn(-c2ccccc2)c2c1CC(=O)Nc1ccccc1-2 | 0.566 µM (active) | 0.618 | 3.15 µM (inactive) | 0.313 µM (active) | 0.187 µM (active) | 1.63 µM (inactive) | 9.66 µM (inactive) | 1.6 µM (inactive) | 2.65 µM (inactive) | 0.607 µM (active) | 2.55 µM (inactive) | 0.204 µM (active) | 0.412 µM (active) | 0.521 µM (active) | 0.318 µM (active) | – | 0.374 µM (active) | 0.236 µM (active) | 5.01 µM (inactive) | –
CC1(C)OC2COC(c3n[nH]c4c(=O)[nH]c(=O)[nH]c34)C2O1 (stereo not given) | > 100 µM (inactive) | > 100 | > 100 µM (inactive) | > 100 µM (inactive) | > 100 µM (inactive) | > 100 µM (inactive) | > 100 µM (inactive) | > 100 µM (inactive) | > 100 µM (inactive) | > 100 µM (inactive) | > 100 µM (inactive) | > 100 µM (inactive) | > 100 µM (inactive) | > 100 µM (inactive) | > 100 µM (inactive) | > 100 µM (inactive) | > 100 µM (inactive) | > 100 µM (inactive) | > 100 µM (inactive) | –
S=C(c1c[nH]c2ccccc12)N1CCN(Cc2ccccc2)CC1 | 26.4 µM (inactive) | 13.6 | 18.5 µM (inactive) | 16.1 µM (inactive) | 15.6 µM (inactive) | 19.5 µM (inactive) | 18 µM (inactive) | 19.3 µM (inactive) | 17.5 µM (inactive) | 18.6 µM (inactive) | 14.9 µM (inactive) | 15.5 µM (inactive) | 27.1 µM (inactive) | 15.6 µM (inactive) | 14.8 µM (inactive) | 19.5 µM (inactive) | 17.8 µM (inactive) | 18.5 µM (inactive) | 15 µM (inactive) | –
CSc1ncc2c(n1)-c1ccccc1OC2NC1CC1 (stereo not given) | 32.7 µM (inactive) | 40.4 | – | > 100 µM (inactive) | > 100 µM (inactive) | 92.7 µM (inactive) | 51.2 µM (inactive) | 73.6 µM (inactive) | 63 µM (inactive) | > 100 µM (inactive) | > 100 µM (inactive) | > 100 µM (inactive) | 54 µM (inactive) | 25.8 µM (inactive) | > 100 µM (inactive) | – | > 100 µM (inactive) | 30.2 µM (inactive) | 25.5 µM (inactive) | –
Cc1ncc([N+](=O)[O-])n1CCNC(=O)CCCCn1ccnc1[N+](=O)[O-] | – | > 100 | > 100 µM (inactive) | – | > 100 µM (inactive) | > 100 µM (inactive) | – | > 100 µM (inactive) | > 10 µM (inactive) | > 100 µM (inactive) | > 100 µM (inactive) | > 100 µM (inactive) | > 100 µM (inactive) | > 100 µM (inactive) | > 100 µM (inactive) | > 100 µM (inactive) | > 100 µM (inactive) | > 100 µM (inactive) | > 100 µM (inactive) | > 100 µM (inactive)
O=C(Cn1ccc(=O)[nH]c1=O)Nc1ccc(C(=O)O)c(O)c1 | > 100 µM (inactive) | > 100 | 26.2 µM (inactive) | > 100 µM (inactive) | > 100 µM (inactive) | > 100 µM (inactive) | > 100 µM (inactive) | > 100 µM (inactive) | > 100 µM (inactive) | – | > 100 µM (inactive) | > 100 µM (inactive) | > 100 µM (inactive) | > 100 µM (inactive) | 18.2 µM (inactive) | > 100 µM (inactive) | > 100 µM (inactive) | > 100 µM (inactive) | > 100 µM (inactive) | –
O=[N+]([O-])/C=C/c1cn(CCCCCCCCCCCCn2cc(/C=C/[N+](=O)[O-])c3ccccc32)c2ccccc12 | > 100 µM (inactive) | > 100 | > 100 µM (inactive) | – | > 100 µM (inactive) | – | > 100 µM (inactive) | > 100 µM (inactive) | > 100 µM (inactive) | > 100 µM (inactive) | – | > 100 µM (inactive) | – | > 100 µM (inactive) | – | > 100 µM (inactive) | > 100 µM (inactive) | > 100 µM (inactive) | > 100 µM (inactive) | > 100 µM (inactive)
CC(C)(C)OC(=O)N1C(c2cccnc2)=CC[C@H]2C3CC=C(c4cccnc4)[C@@]3(C)CC[C@@H]21 (stereo not given in full) | 4.22 µM (inactive) | 3.52 | 2.79 µM (inactive) | 3.32 µM (inactive) | 3.05 µM (inactive) | 2.9 µM (inactive) | 2.11 µM (inactive) | 3.4 µM (inactive) | 4.76 µM (inactive) | 3.82 µM (inactive) | 4.83 µM (inactive) | 2.13 µM (inactive) | 0.52 µM (active) | 2.61 µM (inactive) | 3.13 µM (inactive) | 3.44 µM (inactive) | 3.83 µM (inactive) | 1.97 µM (inactive) | 3.56 µM (inactive) | –
Cc1nc2[nH]ccn2c(=O)c1CCO | > 10 µM (inactive) | > 10 | > 10 µM (inactive) | > 10 µM (inactive) | > 10 µM (inactive) | > 10 µM (inactive) | > 10 µM (inactive) | > 10 µM (inactive) | > 10 µM (inactive) | > 10 µM (inactive) | > 10 µM (inactive) | > 10 µM (inactive) | > 10 µM (inactive) | > 10 µM (inactive) | > 10 µM (inactive) | > 10 µM (inactive) | > 10 µM (inactive) | > 10 µM (inactive) | > 10 µM (inactive) | –
COc1c(C(C)(C)C)cc(CC2C(=O)C=CC2=O)cc1C(C)(C)C | 5.92 µM (inactive) | 14.1 | 18.4 µM (inactive) | 14.8 µM (inactive) | 15.2 µM (inactive) | 19.1 µM (inactive) | 17.7 µM (inactive) | 22.4 µM (inactive) | 6.53 µM (inactive) | 11.1 µM (inactive) | 19.1 µM (inactive) | 15.3 µM (inactive) | 4.93 µM (inactive) | 17.9 µM (inactive) | 20.2 µM (inactive) | 17.2 µM (inactive) | 6.92 µM (inactive) | 4.34 µM (inactive) | – | –
COC(=O)c1cc2c3c(c(C(C)=O)c(OC)c2[nH]1)NCC3 | > 50 µM (inactive) | > 50 | > 50 µM (inactive) | > 50 µM (inactive) | > 50 µM (inactive) | > 50 µM (inactive) | > 50 µM (inactive) | > 50 µM (inactive) | > 50 µM (inactive) | > 50 µM (inactive) | > 50 µM (inactive) | > 50 µM (inactive) | > 50 µM (inactive) | > 50 µM (inactive) | > 50 µM (inactive) | > 50 µM (inactive) | > 50 µM (inactive) | > 50 µM (inactive) | 34.5 µM (inactive) | –
COC(C/C(=C/CO[Si](C(C)C)(C(C)C)C(C)C)C(=O)N(C(=O)OC(C)(C)C)c1ccccc1I)OC | 49 µM (inactive) | 33.4 | 57.7 µM (inactive) | – | 26.9 µM (inactive) | > 100 µM (inactive) | – | 39.7 µM (inactive) | > 100 µM (inactive) | – | 56.4 µM (inactive) | 32.5 µM (inactive) | > 100 µM (inactive) | > 100 µM (inactive) | 10.7 µM (inactive) | – | 59.3 µM (inactive) | – | > 100 µM (inactive) | 40.6 µM (inactive)
COc1ccc(CNc2nc3cc(C(F)(F)F)ccc3nc2C(=O)O)cc1OC | – | 29.4 | 22 µM (inactive) | – | 36.5 µM (inactive) | – | 31.8 µM (inactive) | 33.4 µM (inactive) | 41.4 µM (inactive) | 32.5 µM (inactive) | 29.6 µM (inactive) | 26.7 µM (inactive) | 24.4 µM (inactive) | 20.5 µM (inactive) | 34 µM (inactive) | – | 43.5 µM (inactive) | – | 64.1 µM (inactive) | 36 µM (inactive)
